How the values were obtained:
[1] = target: T1, Serine/threonine-protein kinase TBK1 (Homo sapiens, UniProt Q9UHD2); assay: (§1) Inhibition of recombinant full length human N-terminal His-tagged TBK1 using biotin-labelled Ahx-GDEDFSSFAEPG peptide as substrate preincubated with enzyme for 15 mins followed by substrate addition and further incubated for 30 mins in presence of 1 mM of ATP by TR-FRET assay
T1 sequence (Q9UHD2 whole entry): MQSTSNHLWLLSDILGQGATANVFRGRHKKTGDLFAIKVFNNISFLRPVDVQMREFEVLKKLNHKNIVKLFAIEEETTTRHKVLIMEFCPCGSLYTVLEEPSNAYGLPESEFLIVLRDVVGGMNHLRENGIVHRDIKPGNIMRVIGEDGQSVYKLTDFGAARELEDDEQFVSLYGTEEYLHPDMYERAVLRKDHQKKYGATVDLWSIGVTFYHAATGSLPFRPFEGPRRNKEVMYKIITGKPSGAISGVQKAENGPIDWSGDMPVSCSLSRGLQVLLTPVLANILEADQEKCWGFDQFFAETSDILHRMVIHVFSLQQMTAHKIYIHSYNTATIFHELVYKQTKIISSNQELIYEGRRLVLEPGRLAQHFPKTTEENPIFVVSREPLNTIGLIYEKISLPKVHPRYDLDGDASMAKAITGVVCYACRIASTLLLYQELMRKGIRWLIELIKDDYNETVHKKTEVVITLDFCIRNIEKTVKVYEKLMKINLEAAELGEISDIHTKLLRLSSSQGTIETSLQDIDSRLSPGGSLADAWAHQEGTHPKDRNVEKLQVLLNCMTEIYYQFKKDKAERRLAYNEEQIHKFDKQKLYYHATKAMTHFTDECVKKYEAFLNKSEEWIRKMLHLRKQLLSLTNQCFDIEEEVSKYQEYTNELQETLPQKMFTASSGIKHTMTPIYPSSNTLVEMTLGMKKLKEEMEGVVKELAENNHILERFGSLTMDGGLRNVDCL

[2] = target: T2, Inhibitor of nuclear factor kappa-B kinase subunit epsilon (Homo sapiens, UniProt Q14164); assay: as §1, with “C-terminal GST-tagged IKKepsilon expressed in baculovirus expression system” for “N-terminal His-tagged TBK1”, “10 uM” for “1 mM”
T2 sequence (Q14164 whole entry): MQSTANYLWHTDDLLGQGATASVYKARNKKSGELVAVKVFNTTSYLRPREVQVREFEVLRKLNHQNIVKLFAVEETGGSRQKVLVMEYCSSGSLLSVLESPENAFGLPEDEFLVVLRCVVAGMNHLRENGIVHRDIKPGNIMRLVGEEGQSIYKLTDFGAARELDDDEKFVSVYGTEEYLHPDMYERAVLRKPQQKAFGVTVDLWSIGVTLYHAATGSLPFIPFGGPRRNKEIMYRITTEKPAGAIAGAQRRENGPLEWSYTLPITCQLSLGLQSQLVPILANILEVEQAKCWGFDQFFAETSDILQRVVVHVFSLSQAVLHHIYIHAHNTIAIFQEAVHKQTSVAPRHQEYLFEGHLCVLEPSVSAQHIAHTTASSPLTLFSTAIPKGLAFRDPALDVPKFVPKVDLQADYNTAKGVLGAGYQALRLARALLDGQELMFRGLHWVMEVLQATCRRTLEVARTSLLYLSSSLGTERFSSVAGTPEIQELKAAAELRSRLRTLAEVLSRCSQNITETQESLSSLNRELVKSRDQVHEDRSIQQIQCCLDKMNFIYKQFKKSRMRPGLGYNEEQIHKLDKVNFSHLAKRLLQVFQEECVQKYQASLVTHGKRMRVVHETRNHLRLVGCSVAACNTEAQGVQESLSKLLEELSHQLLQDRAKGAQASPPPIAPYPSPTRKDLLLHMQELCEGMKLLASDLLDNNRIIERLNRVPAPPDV

IKK epsilon/TBK1 = target: T3, IKK epsilon/TBK1 (Homo sapiens, UniProt Q14164+Q9UHD2); assay: Inhibition of IKKepsilon/TBK1 in human MDB-MB-231 cells transduced with lentiviral vector expressing human IRF3 assessed as decrease in poly(I:C)-stimulated IRF3 phosphorylation at S385/386 residues preincubated for 1 hr followed by poly(I:C) addition and measured after 1 hr; type: cell-based
T3 sequence (Q14164 whole entry): T2 sequence (Q14164 whole entry)
T3 sequence (Q9UHD2 whole entry): T1 sequence (Q9UHD2 whole entry)

SK-MEL-2 = assay: Antiproliferative activity against human SK-MEL-2 cells harboring NRAS/TP53 mutation assessed as reduction in cell viability after 96 hrs by CellTiter-Glo luminescence assay; type: functional, cell-based; conditions: SK-MEL-2, 96 h
[3] = target: Ribosomal protein S6 kinase alpha-6 (Homo sapiens, UniProt Q9UK32); assay: Inhibition of recombinant full length human His6-tagged RSK4 expressed in baculovirus infected sf21 cells using biotin labelled Ahx-KKLNRTLSFAEPG peptide as substrate preincubated with enzyme for 15 mins followed by substrate addition and further incubated for 30 mins in presence of 10 uM of ATP by TR-FRET assay
[4] = target: T4, Serine/threonine-protein kinase 17A (Homo sapiens, UniProt Q9UEE5); assay: Inhibition of wild-type human partial length DRAK1 (R32 to E363 residues) expressed in bacterial expression system by Kinomescan method
T4 sequence (Q9UEE5 whole entry): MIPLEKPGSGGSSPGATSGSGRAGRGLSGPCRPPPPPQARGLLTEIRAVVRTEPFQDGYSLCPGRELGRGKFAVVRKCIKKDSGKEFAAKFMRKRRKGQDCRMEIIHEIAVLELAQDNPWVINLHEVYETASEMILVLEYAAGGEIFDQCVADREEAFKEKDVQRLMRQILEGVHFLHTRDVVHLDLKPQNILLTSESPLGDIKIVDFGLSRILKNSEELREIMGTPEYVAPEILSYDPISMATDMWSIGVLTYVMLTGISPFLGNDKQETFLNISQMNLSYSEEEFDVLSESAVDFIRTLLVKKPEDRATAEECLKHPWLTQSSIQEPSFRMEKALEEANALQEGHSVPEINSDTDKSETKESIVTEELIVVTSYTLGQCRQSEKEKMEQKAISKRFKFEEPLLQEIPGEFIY

[5] = Apparent permeability of compound across apical to basal membrane in human Caco2 cells at 2 uM in DMSO after 2 hrs by LC-MS/MS analysis; type: ADME, cell-based; conditions: Caco-2
[6] = Apparent permeability of compound across basal to apical membrane in human Caco2 cells at 2 uM in DMSO after 2 hrs by LC-MS/MS analysis; type: ADME, cell-based; conditions: Caco-2

Sequence of Ribosomal protein S6 kinase alpha-6 (Q9UK32 whole entry, the tested form may be a part): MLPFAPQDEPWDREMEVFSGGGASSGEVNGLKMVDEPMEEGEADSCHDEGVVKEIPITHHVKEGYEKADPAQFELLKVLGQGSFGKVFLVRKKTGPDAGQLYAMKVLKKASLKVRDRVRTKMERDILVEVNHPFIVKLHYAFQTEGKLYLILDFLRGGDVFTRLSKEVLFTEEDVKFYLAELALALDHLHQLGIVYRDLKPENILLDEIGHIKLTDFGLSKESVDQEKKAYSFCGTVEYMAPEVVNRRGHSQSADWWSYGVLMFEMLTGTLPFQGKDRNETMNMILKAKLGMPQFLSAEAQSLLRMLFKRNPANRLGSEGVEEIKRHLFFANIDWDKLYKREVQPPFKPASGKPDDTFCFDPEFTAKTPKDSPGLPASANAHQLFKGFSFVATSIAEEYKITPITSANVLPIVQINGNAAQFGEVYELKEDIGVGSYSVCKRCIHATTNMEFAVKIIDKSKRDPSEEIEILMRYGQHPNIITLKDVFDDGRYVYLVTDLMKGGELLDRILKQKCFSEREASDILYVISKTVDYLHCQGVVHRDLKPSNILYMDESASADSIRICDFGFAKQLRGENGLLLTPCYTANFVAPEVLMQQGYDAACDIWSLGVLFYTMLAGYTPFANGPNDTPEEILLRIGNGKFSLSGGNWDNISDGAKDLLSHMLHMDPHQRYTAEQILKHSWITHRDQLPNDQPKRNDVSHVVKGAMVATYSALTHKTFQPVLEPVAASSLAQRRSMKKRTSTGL

## C[C@H](c1ccnc(Nc2nc3ccc(-c4cnn(CC5CC5)c4)cc3[nH]2)c1)N1CCN(C(=O)CC(F)(F)F)CC1
[1]
  IC50: 18 nM
[2]
  IC50: 6 nM
IKK epsilon/TBK1
  IC50: 131 nM
SK-MEL-2
  IC50: 408 nM
[3]
  IC50: 3220 nM
[4]
  Kd: 5 nM
[5]
  Papp A→B at 2 h, 2 µM: 1.6 ×10⁻⁶ cm/s
[6]
  Papp B→A at 2 h, 2 µM: 11.8 ×10⁻⁶ cm/s

## CN(C)c1cc(-c2ccc3nc(Nc4cc(CN5CCN(C(=O)CC(F)(F)F)CC5)ccn4)[nH]c3c2)ncn1
[1]
  IC50: 167 nM
[2]
  IC50: 10 nM
IKK epsilon/TBK1
  IC50: 213 nM
SK-MEL-2
  IC50: 246 nM
[3]
  IC50: 528 nM
[4]
  IC50: 252 nM

## C[C@H](c1ccnc(Nc2nc3ccc(-c4cc(OCC5CC5)ncn4)cc3[nH]2)c1)N1CCN(C(=O)CC(F)(F)F)CC1
[1]
  IC50: 5 nM
[2]
  IC50: 4 nM
IKK epsilon/TBK1
  IC50: 66 nM
SK-MEL-2
  IC50: 470 nM
[3]
  IC50: 1260 nM

## O=C(CC(F)(F)F)N1CCN(Cc2ccnc(Nc3nc4ccc(-c5cnn(CC6CC6)c5)cc4[nH]3)c2)CC1
[1]
  IC50: 137 nM
[2]
  IC50: 7 nM
IKK epsilon/TBK1
  IC50: 368 nM
SK-MEL-2
  IC50: 221 nM
[3]
  IC50: 4120 nM
[5]
  Papp A→B at 2 h, 2 µM: 3.2 ×10⁻⁶ cm/s
[6]
  Papp B→A at 2 h, 2 µM: 12.5 ×10⁻⁶ cm/s

## Cc1cc(-c2ccc3nc(Nc4cc([C@@H](C)N5CCN(C(=O)CC(F)(F)F)CC5)ccn4)[nH]c3c2)ncn1
[1]
  IC50: 17 nM
[2]
  IC50: 4 nM
IKK epsilon/TBK1
  IC50: 140 nM
SK-MEL-2
  IC50: 476 nM
[3]
  IC50: 170 nM

## CC(C)Oc1cncnc1-c1ccc2nc(Nc3cc([C@@H](C)N4CCN(C(=O)CC(F)(F)F)CC4)ccn3)[nH]c2c1
[1]
  IC50: 50 nM
IKK epsilon/TBK1
  IC50: 119 nM
SK-MEL-2
  IC50: 3970 nM
[3]
  IC50: 7 nM

## Cc1noc(-c2ccc3nc(Nc4cc(CN5CCN(C(=O)CC(F)(F)F)CC5)ccn4)[nH]c3c2)n1
[1]
  IC50: 2270 nM
[2]
  IC50: 168 nM
IKK epsilon/TBK1
  IC50: 2750 nM
SK-MEL-2
  IC50: 2180 nM
[3]
  IC50: 8910 nM
[4]
  Kd: 9 nM
[5]
  Papp A→B at 2 h, 2 µM: 4.2 ×10⁻⁶ cm/s
[6]
  Papp B→A at 2 h, 2 µM: 14.2 ×10⁻⁶ cm/s

## Cc1noc(-c2ccc3nc(Nc4cc([C@@H](C)N5CCN(C(=O)CC(F)(F)F)CC5)ccn4)[nH]c3c2)n1
[1]
  IC50: 372 nM
[2]
  IC50: 37 nM
IKK epsilon/TBK1
  IC50: 1210 nM
SK-MEL-2
  IC50: 3530 nM
[3]
  IC50: 2360 nM
[4]
  Kd: 10 nM
[5]
  Papp A→B at 2 h, 2 µM: 10.8 ×10⁻⁶ cm/s
[6]
  Papp B→A at 2 h, 2 µM: 8.6 ×10⁻⁶ cm/s

## COCc1cc(-c2ccc3nc(Nc4cc([C@@H](C)N5CCN(C(=O)CC(F)(F)F)CC5)ccn4)[nH]c3c2)ncn1
[2]
  IC50: 2 nM
SK-MEL-2
  IC50: 883 nM
[3]
  IC50: 192 nM
[4]
  IC50: 30 nM
[5]
  Papp A→B at 2 h, 2 µM: 1.4 ×10⁻⁶ cm/s
[6]
  Papp B→A at 2 h, 2 µM: 21.8 ×10⁻⁶ cm/s

## CNc1cc(-c2ccc3nc(Nc4cc(CN5CCN(C(=O)CC(F)(F)F)CC5)ccn4)[nH]c3c2)ncn1
[1]
  IC50: 155 nM
[2]
  IC50: 10 nM
IKK epsilon/TBK1
  IC50: 1990 nM
SK-MEL-2
  IC50: 245 nM
[3]
  IC50: 177 nM
[4]
  IC50: 25 nM

## C[C@H](c1ccnc(Nc2nc3ccc(-c4cc(N(C)C)ncn4)cc3[nH]2)c1)N1CCN(C(=O)CC(F)(F)F)CC1 [BAY-985]
[1]
  IC50: 30 nM
[2]
  IC50: 2 nM
IKK epsilon/TBK1
  IC50: 74 nM
SK-MEL-2
  IC50: 900 nM
[3]
  IC50: 276 nM
[4]
  IC50: 311 nM
[5]
  Papp A→B at 2 h, 2 µM: 0.89 to 0.9 ×10⁻⁶ cm/s
[6]
  Papp B→A at 2 h, 2 µM: 14.6 to 14.7 ×10⁻⁶ cm/s

— ChEMBL document CHEMBL4376867 (J Med Chem, 2020)
